Assay results as given in patent US20250195457A1, “PHARMACEUTICAL COMPOSITION FOR TREATMENT OF PARKINSON'S DISEASE” (Eisai R&D Management Co., Ltd., priority 2022, published 2025).

Tested on: Parkinson's disease model cynomolgus monkeys (MPTP)
Test: Test Example 1: NDSs after administration of Compound (I) alone in MPTP Parkinson's disease model monkeys
Format: in vivo
Design: key to Subgroup 2: Specific motor functions score: specific motor functions subscore, range 0-21
Description: The therapeutic effect of Compound (I) on Parkinson's disease was examined using Parkinson's disease model animals which are produced by administering MPTP (1-methyl-4-phenyl-1,2,3,6-tetrahydropyridine).
MPTP was administered to male cynomolgus monkeys at the age of 4 to 5 to make Parkinson's disease model cynomolgus monkeys. MPTP was additionally administered to animals with neurologic deficit scores (Neurological deficit scores: NDSs, Schneider et al., “Development of levodopa-induced dyskinesias in parkinsonian monkeys may depend upon rate of symptom onset and/or duration of symptoms”, Brain Res., 2003, 990:38-44.) of less than 25.
Eight Parkinson's disease model cynomolgus monkeys were randomized into 5 groups of approximately equal mean and variance in terms of Parkinson behavior rating (Tremor score) and body weight. On subsequent cycle 2, cycle 3, cycle 4 and cycle 5, the animals were crossed over to receive the other treatments. A wash out period of one week or more was set between each cycle.
By the end of the study, each animal had received all the five treatments. Istradefylline is an adenosine A2A receptor antagonist approved as a drug for improving a wearing off phenomenon in Parkinson's disease being treated with a levodopa-containing preparation in the United States of America and Japan (Patent Literature 4). As a vehicle, an aqueous solution containing 0.43% (w/v) methyl cellulose 400, 10% (v/v) dimethyl sulfoxide (DMSO), and 4.5% (w/v) Cremophor (R) was used.
Before the administration, and 1 hr., 4 hrs., and 24 hrs. after the administration of the test substances, the NDSs of the monkeys were evaluated. The evaluation items are as follows. The behavior evaluation was performed in a blinded manner. The NDSs of the groups were compared using Steel's test. The p-values of less than 0.05 were considered to be statistically significant.
Subgroup 1: generalized behaviors (0-32) • 1.1a Appetite • 0: Normal • 1: Up to 30% food left • 2: Up to 65% food left • 3: Greater than 65% food left • 1.1b Response to offered food • 0: Responds to offered food • 1: Inconsistent response to offered food • 2: Little to no interest in offered food • 1.2 Overall activity • 0: Normal • 1: Mild hypokinesia; decrease in spontaneous movement • 2: Moderate hypokinesia; sparse spontaneous movement • 3: Severe hypokinesia; no spontaneous movement; tends to remain in one place • 1.3 Appearance • 0: Normal • 1: Mild but noticeable decrease in self-maintenance • 2: Moderate decrease in self-maintenance • 3: Severe lack of self-maintenance • 1.4 Posture • 0: Normal • 1: Minor flexing or stooping • 2: Moderate flexing or stooping; head and upper body almost parallel to floor of cage • 3: Severe flexing or stooping; head lowered to feet • 1.5 Balance • 0: Normal • 1: Mild loss on arising or movement • 2: Moderate loss on arising or movement; occasionally falls or supports self to keep from falling • 3: Severe loss of balance; falls • 1.6 Climbing • 0: Climbing observed with no delays in initiation/execution • 1: Mild deficit in ability to climb and support weight • 2: Moderate deficit in ability to climb and support weight; tends to ‘slide down’ • 3: Absence of any climbing behavior • 1.7 Tremor • 0: Absent • 1: Slight and intermittent • 2: Slight and persistent or moderate and intermittent • 3: Moderate/severe and persistent • 1.8 Freezing during movement • 0: Absent • 1: Occasional freezing for brief periods • 2: Occasional freezing for prolonged periods or frequent freezing for brief periods • 3: Prolonged and frequent freezing • 1.9 Facial expression • 0: Normal • 1: Mild hypomimia • 2: Moderate hypomimia • 3: Severe, masked fixed faces • 1.10 Defense reaction • 0: Normal • 1: Mild, noticeable reduction in reaction or slowed reaction, but can be provoked to react • 2: Moderate reduction in reaction; can produce facial display but not body reaction • 3: Little to no response
Subgroup 2: Specific Motor Functions (0-21)

[1] = Compound (I) high dose 50 mg/kg (G4), 1 hr. after administration
[2] = Compound (I) high dose 50 mg/kg (G4), 4 hrs. after administration
[3] = Compound (I) high dose 50 mg/kg (G4), 24 hrs. after administration
[4] = Compound (I) high dose 50 mg/kg (G4), Pre (before administration)
[5] = Compound (I) low dose 5 mg/kg (G2), 1 hr. after administration
[6] = Compound (I) low dose 5 mg/kg (G2), 4 hrs. after administration
[7] = Compound (I) low dose 5 mg/kg (G2), 24 hrs. after administration
[8] = Compound (I) low dose 5 mg/kg (G2), Pre (before administration)
[9] = Compound (I) middle dose 15 mg/kg (G3), 1 hr. after administration
[10] = Compound (I) middle dose 15 mg/kg (G3), 4 hrs. after administration
[11] = Compound (I) middle dose 15 mg/kg (G3), 24 hrs. after administration
[12] = Compound (I) middle dose 15 mg/kg (G3), Pre (before administration)

NS(=O)(=O)N[C@H]1c2c(F)cc(F)cc2CC1(F)F [Compound (I), N-[(1S)-2,2,5,7-tetrafluoro-2,3-dihydro-1H-inden-1-yl]sulfamide]
Subgroup 1: GENERALIZED BEHAVIORS score [1]: 17.1 ± 0.8
Subgroup 2: Specific motor functions score [1]: 12.0 ± 0.5
Total score of NDSs [1]: 29.1 ± 1.3
Tremor score [1]: 1.6 ± 0.2
Subgroup 1: GENERALIZED BEHAVIORS score [2]: 14.8 ± 1.0
Subgroup 2: Specific motor functions score [2]: 9.9 ± 0.5
Total score of NDSs [2]: 24.6 ± 1.3
Tremor score [2]: 1.1 ± 0.1
Subgroup 1: GENERALIZED BEHAVIORS score [3]: 17.3 ± 1.1
Subgroup 2: Specific motor functions score [3]: 12.0 ± 0.6
Total score of NDSs [3]: 29.3 ± 1.6
Tremor score [3]: 1.4 ± 0.2
Subgroup 1: GENERALIZED BEHAVIORS score [4]: 19.0 ± 0.8
Subgroup 2: Specific motor functions score [4]: 13.5 ± 0.4
Total score of NDSs [4]: 32.5 ± 1.1
Tremor score [4]: 2.1 ± 0.1
Subgroup 1: GENERALIZED BEHAVIORS score [5]: 16.1 ± 0.9
Subgroup 2: Specific motor functions score [5]: 11.5 ± 0.6
Total score of NDSs [5]: 27.6 ± 1.5
Tremor score [5]: 1.8 ± 0.2
Subgroup 1: GENERALIZED BEHAVIORS score [6]: 16.0 ± 0.7
Subgroup 2: Specific motor functions score [6]: 12.5 ± 0.3
Total score of NDSs [6]: 28.5 ± 1.0
Tremor score [6]: 1.8 ± 0.2
Subgroup 1: GENERALIZED BEHAVIORS score [7]: 17.1 ± 0.8
Subgroup 2: Specific motor functions score [7]: 11.9 ± 0.4
Total score of NDSs [7]: 29.0 ± 1.0
Tremor score [7]: 2.1 ± 0.1
Subgroup 1: GENERALIZED BEHAVIORS score [8]: 17.4 ± 0.8
Subgroup 2: Specific motor functions score [8]: 13.3 ± 0.5
Total score of NDSs [8]: 30.6 ± 1.1
Tremor score [8]: 2.0 ± 0.0
Subgroup 1: GENERALIZED BEHAVIORS score [9]: 15.5 ± 1.0
Subgroup 2: Specific motor functions score [9]: 12.3 ± 0.5
Total score of NDSs [9]: 27.8 ± 1.5
Tremor score [9]: 1.6 ± 0.2
Subgroup 1: GENERALIZED BEHAVIORS score [10]: 15.0 ± 0.8
Subgroup 2: Specific motor functions score [10]: 11.5 ± 0.4
Total score of NDSs [10]: 26.5 ± 1.0
Tremor score [10]: 1.6 ± 0.2
Subgroup 1: GENERALIZED BEHAVIORS score [11]: 16.8 ± 0.9
Subgroup 2: Specific motor functions score [11]: 12.8 ± 0.3
Total score of NDSs [11]: 29.5 ± 1.1
Tremor score [11]: 1.8 ± 0.2
Subgroup 1: GENERALIZED BEHAVIORS score [12]: 17.3 ± 0.6
Subgroup 2: Specific motor functions score [12]: 12.9 ± 0.4
Total score of NDSs [12]: 30.1 ± 0.9
Tremor score [12]: 2.0 ± 0.0
